Reference: article PMC11173382, “In Vitro Investigations into the Potential Drug Interactions of Pseudoginsenoside DQ Mediated by Cytochrome P450 and Human Drug Transporters” (Molecules, 2024)

Biological target: T1, hOCT2 (Homo sapiens, UniProt O15244)
T1 construct: host or cells: S2-OCT2
T1 sequence (O15244 1-555): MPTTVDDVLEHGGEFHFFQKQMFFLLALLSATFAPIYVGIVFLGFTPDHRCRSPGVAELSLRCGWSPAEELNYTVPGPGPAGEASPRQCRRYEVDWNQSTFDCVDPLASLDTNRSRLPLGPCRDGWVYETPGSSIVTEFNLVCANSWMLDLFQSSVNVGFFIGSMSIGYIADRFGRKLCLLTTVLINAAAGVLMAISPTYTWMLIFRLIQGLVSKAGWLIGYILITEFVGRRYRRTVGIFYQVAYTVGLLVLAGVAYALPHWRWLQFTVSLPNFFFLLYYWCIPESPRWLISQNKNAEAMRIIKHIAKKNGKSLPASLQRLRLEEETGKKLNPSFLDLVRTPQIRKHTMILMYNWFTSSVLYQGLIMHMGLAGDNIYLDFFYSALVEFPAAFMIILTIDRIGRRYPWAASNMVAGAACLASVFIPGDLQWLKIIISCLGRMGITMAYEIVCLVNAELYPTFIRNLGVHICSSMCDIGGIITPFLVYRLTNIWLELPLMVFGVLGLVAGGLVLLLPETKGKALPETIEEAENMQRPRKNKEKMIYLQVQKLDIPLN
Assay: Substrates uptake assay, S2-OCT2 cells (14C-TEA)
Assay type: in vitro ADME
Conditions: for Transport activity of OCT2 (main text: percentage inhibition): negative control = 100%
From the text: Drug transporters mediate the cellular uptake and efflux of their substrates. Therefore, cell lines overexpressing a drug transporter can be utilized to investigate inhibitors of the transporter by assessing changes in substrate uptake. For each drug transporter, we selected a well-characterized inhibitor as the positive control. Radiolabeled substrates were used to indicate the decrease in transport efficiency when the drug transporters were inhibited by PDQ or the control inhibitors.
The concentrations of the control drugs and the substrates were stated in the assay details. Working solutions of the control inhibitors, the radiolabeled substrates, and each dose of PDQ were prepared at 200 times (200×) more concentrated solutions with DMSO for further dilution.
Transporter-overexpressed cell lines. Human organic anion transporter-overexpressed cell lines MDCKII-OAT1 and S2-OAT3, human organic anion transport polypeptide-overexpressed cell lines HEK293A-OATP1B1 and HEK293A-OATP1B3, human organic cation transporter 2-overexpressed cell line S2-OCT2, and human multi-drug resistance protein MDR1 (or P-gp)-overexpressed cell line MDCKII-MDR1 were gifts from Japan Fuji Biomedical Co., Ltd. (Fuji, Shizuoka Prefecture, Japan). Breast cancer resistance protein-overexpressed vesicles (sf9-BCRP vesicle) were purchased from GenoMembrane Co., Ltd. (Yokohama, Kanagawa, Japan).
Substrates uptake assay. In this assay, we studied the inhibition of PDQ against transporters OAT1, OAT3, OCT2, OATP1B1 and OATP1B3 with MDCKII-OAT1, S2-OAT3, S2-OCT2, HEK293A-OATP1B1and HEK293A-OATP1B3 cells, respectively. The radiolabeled substrates for OAT1, OAT3, OATP1B1, OATP1B3 and OCT2 were […], respectively (Table 5). Probenecid ([…]) was the positive control inhibitor of OAT1 and OAT3, while rifampicin ([…]) served as the control drug of OATP1B1 and OATP1B3. For OCT2, we used […] cimetidine to compare with the inhibitory effect of PDQ. Two times (2×) more concentrated working solutions of the drugs and the substrate were prepared with Dulbecco’s phosphate-buffered saline (DPBS, Gibco, Grand Island, NY, USA.). Then, an equal volume of 2× drug solution and 2× radiolabeled substrate solution were mixed as the working mix. All reagents were pre-warmed to 37 °C.
The cells were digested with 0.05% trypsin/EDTA. The density of the single-cell suspension was adjusted to 2.0 × 10^5 cells/mL for S2 cells and to 1.5 × 10^5 cells/mL for MDCK II and HEK293A cells. The cell suspension was then added to the reservoirs of the 24-well plate for culture until full confluency. The medium in the wells was removed, and the wells were washed with DPBS. Then, the plate was incubated for 10 min with pre-warmed DPBS in the wells. After removing DPBS, […] of working mix was added to each well to initiate the substrate uptake process. The reaction time was 5 min for S2-OCT2 cells, while the other four types of cells were incubated with the reaction mix for 2 min. Cold DPBS was used to terminate the substrate transportation. To each well, […] NaOH ([…]) was added to lyse the cells. Then, […] cell lysate was transferred to the counting vials, and 3 mL scintillation cocktail (Aquasol-2, PerkinElmer, Waltham, MA, USA) was added. […] Each sample was replicated three times (N = 3).
In = [100 × (U − U0)/(Uc − U0)]%(3)
The results were expressed as mean ± standard deviation (SD) and analyzed with GraphPad Prism 8.0 software (CA, USA). The IC50 of PDQ was curve-fitted with the FORECAST function. Statistical significance was calculated using a two-tailed test, and a p value < 0.05 was considered as significant.

CC(C)(O)[C@@H]1CC[C@@](C)([C@H]2CC[C@]3(C)[C@@H]2[C@H](O)C[C@@H]2[C@@]4(C)CC[C@H](O)C(C)(C)[C@@H]4CC[C@]23C)O1 [PDQ, (20S,24S)-dammar-20,24-epoxy-3β, 12β, 25-triol]
DPM (14C-TEA uptake by OCT2) (inhibitor 0.1 μM): 994.3±112.3 DPM | Transport activity of OCT2 (main text: percentage inhibition) (inhibitor 0.1 μM): 101.6±11.5% | DPM (14C-TEA uptake by OCT2) (inhibitor 0.3 μM): 741.3±35.0 DPM | Transport activity of OCT2 (main text: percentage inhibition) (inhibitor 0.3 μM): 75.8±3.6% | DPM (14C-TEA uptake by OCT2) (inhibitor 1 μM): 712.3±115.3 DPM | Transport activity of OCT2 (main text: percentage inhibition) (inhibitor 1 μM): 72.8±11.8% | DPM (14C-TEA uptake by OCT2) (inhibitor 3 μM): 661.7±93.5 DPM | Transport activity of OCT2 (main text: percentage inhibition) (inhibitor 3 μM): 67.6±9.6% | DPM (14C-TEA uptake by OCT2) (inhibitor 10 μM): 612.0±28.7 DPM | Transport activity of OCT2 (main text: percentage inhibition) (inhibitor 10 μM): 62.6±2.9% | DPM (14C-TEA uptake by OCT2) (inhibitor 30 μM): 578.0±29.5 DPM
